Measurements published in publication PMC12598616, “Design and optimization of caspase-1-responsive fluorescent probes for pyroptosis imaging and anti-pyroptosis drug screening” (Chemical Science, 2025).

Tests used:
caspase-3 = test: Selectivity of probes: caspase-3; format: biochemical, human; details: caspase-3 1 μg/mL, 37 °C, 2 h, λex 510 nm, λem 585 nm
Excerpt: (§1) The resin used for SPPS was purchased from GL Biochem (Shanghai, China). Lipopolysaccharide (LPS, L2630), Nigericin and ATP (11140965001) were purchased from Merck (Shanghai, China) and Invitrogen (Shanghai, China), respectively. Cell culture plates were sourced from Wuxi NEST Biotechnology. Recombinant human caspase-1, caspase-3, caspase-4, and caspase-8 were obtained from Abcam and MCE (Shanghai, China). Anti-cleaved caspase-1 antibody, anti-GAPDH antibody, and goat anti-Rabbit/anti-mouse lgG/HRP were purchased from CST (USA) and Beyotime […]
(§2) (Shanghai, China). […]
Medical College (ethical approval number ZJCLA-IACUC-20011003). […]
To investigate the sensitivity of the probes for caspase-1, varying concentration of caspase-1 (0, 0.2, 0.4, 0.6, 0.8, 1.0, 1.25, 1.5, 1.75, 2, 2.5, 3 U/mL) were incubated with FPy1 (5 μM), YPy1 (5 μM) and WPy1 (5 μM) respectively in caspase-1 assay buffer (50 mM HEPES, 50 mM NaCl, 0.1 % chaps, 5 % glycerol, 10 mM DTT, 10 mM EDTA) at 37 °C for 2 hours. Fluorescence spectra were recorded using Hitachi F-2700 spectrophotometer with an excitation at 510 nm (Photomultiplier voltage 700 V; Slit widths ex: 10 nm and em =5.0 nm). […] The limit of detection (LoD) was calculated from 3σ/k, in which σ represents the standard deviation of 15 blank measurements. […]
10 nm and em =5.0 nm). The fluorescence intensity of FPy1, YPy1 and WPy1 at 585 nm were plotted separately against […]

caspase-8 = test: Selectivity of probes: caspase-8; format: biochemical, human; details: caspase-8 1 μg/mL, 37 °C, 2 h, λex 510 nm, λem 585 nm
Excerpt: as §1, §2
Medical College (ethical approval number ZJCLA-IACUC-20011003).
(also on this page, place not known: Wang,*f, Wang*abg Supplementary Information (SI) for Chemical Science. This journal is © The Royal Society of Chemistry 2025)
(1 picture or pasted object on this page, not shown here) […]
mixture was stirred for 3 h. […]
To investigate the sensitivity of the probes for caspase-1, varying concentration of caspase-1 (0, 0.2, 0.4, 0.6, 0.8, 1.0, 1.25, 1.5, 1.75, 2, 2.5, 3 U/mL) were incubated with FPy1 (5 μM), YPy1 (5 μM) and WPy1 (5 μM) respectively in caspase-1 assay buffer (50 mM HEPES, 50 mM NaCl, 0.1 % chaps, 5 % glycerol, 10 mM DTT, 10 mM EDTA) at 37 °C for 2 hours. Fluorescence spectra were recorded using Hitachi F-2700 spectrophotometer with an excitation at 510 nm (Photomultiplier voltage 700 V; Slit widths ex: 10 nm and em =5.0 nm). The fluorescence intensity of FPy1, YPy1 and WPy1 at 585 nm were plotted against the concentration of caspase-1, and a linear regression fitted from the corresponding concentration of caspase-1, and linear regression was applied to determine the slope k. The limit of detection (LoD) was calculated from 3σ/k, in which σ represents the standard deviation of 15 blank measurements. […]
The fluorescence intensity at 585 nm was measured on a Tecan Infinite M1000 Multi-function microplate reader (λex = 510 nm) at 37 °C every 2 minutes. The K M value of probes was determined from the Lineweaver-Burk plot. […]

Substance	fluorescence response to caspase-3 (caspase-3)	fluorescence response to caspase-8 (caspase-8)
–YVADG– [YPy1, caspase-1-responsive FRET probe with recognition peptide –YVADG–; RhoB donor, hNR quencher]	almost no response	almost no response
–FLTDG– [FPy1, RhoB donor, hNR quencher]	almost no response	almost no response
